Series [1] can be described thus: UV absorption spectrum of the free indicator. The format is physicochemical. The note with it: buffer pH 7.2. As to the method:
The emission and excitation fluorescence spectra of the compounds of the present invention (e.g., (1a-3a), (9a), (11a-13a), (15a), and (18a-24a)) were recorded using a 0.5 to 1.0 μM solution of the chelator buffered at pH 7.2. The solutions also contained 120 mM KCl and 20 mM NaCl to mimic the ionic strength of the intracellular medium. These solutions were titrated with stock solutions of MgCl2 containing an equimolar concentration of the 4-oxo-4H-quinolizine carboxylic acids to cancel out dilution effects during the titration. After each titration step, the emission and excitation fluorescence spectra were recorded. The apparent dissociation constants of indicators for Mg^2+ were determined from the fluorescence spectra as originally described by Grynkiewicz et al. (Grynkiewicz et al., J. Biol. Chem. 260: 3440-3450 [1985]).
In the following experiments, tetrahydrofuran (THF) was dried and distilled over sodium/benzophenone (Nalbenzophenone) prior to use. Dimethylformamide (DMF) was dried over molecular sieves (4 Å). Ethyl acetate, hexane, diethyl ether and all commercially available chemicals were used as received. After extractive work-up, the combined organic phases were dried on magnesium sulfate. Water used in the spectrophotometric and fluorescence experiments was filtered through a hydro PICOPURE® 2 filter. Thin layer chromatography was carried out on Sigma-Aldrich TLC plates (silica gel on polyester). Chromatographic purifications were done by flash chromatography using Merck Silica Gel, grade 9385, 230-400 mesh, 60 Å. Melting points were measured on a Fisher-Johns melting point apparatus and are shown uncorrected herein. ^1H-NMR spectra and ^13C-NMR spectra were recorded on a Nicolet NT 360 MHz NMR Spectrometer and a Varian UNITY plus 400 MHz NMR Spectrometer. Chemical shifts are reported in parts per million (δ), using tetramethylsilane (TMS) as the internal standard. The signals are expressed as an s (singlet), d (doublet), t (triplet), q (quartet), m (multiplet), or br (broad). High cresolution mass spectra were obtained from the Washington University Resources for Biomedical and Bio-organic Mass Spectrometry on samples which were chromatographically pure. Compounds (9a) and (21a) were analyzed by FABMS using NBA Li matrix. UV absorption spectra were recorded with a Bechman DU 650 Spectrophotometer using Fisherbrand™ semimicro quartz cells (Fisher Scientific). Fluorescence measurements were recorded with an Aminco-Bowman® Series 2 Spectrometer using quartz fluorimeter cuvets from Sigma. pH measurements were done using a Mettler Toledo MP 255 pH meter.
The buffered solutions used in fluorescence/Mg^2+ titration experiments contained 120 mM KCl, 20 mM NaCl, and 15 mM TRIS buffer, and were brought to pH=7.2 with concentrated HCl. A stock solution of 2 mg of the indicator in 5 ml buffer was prepared. To record a UV spectrum, the stock solutions were diluted 40 times (25 μl in 975 μl). For the fluorescence titration experiments, 25 μl of the stock solution was diluted 100 times with 2475 μl buffer. Emission fluorescence and excitation fluorescence spectra were recorded using the appropriate excitation wavelength derived from the UV spectrum of the free indicator. To 2475 μl of a MgCl2 solution (100 mM, 250 mM or 500 mM (2a)), 25 μl of the stock solution of the indicator was added, to cancel out dilution during the titration. To the solution of the free indicator, increasing amounts of the MgCl2/indicator solution were added. After each titration step, fluorescence emission and fluorescence excitation spectra were recorded.

A short description of series [2]: fluorescent response to increasing Ca2+ concentrations. The format is binding. The note with it: for fluorescent response to increasing Ca^2+ concentrations: Ca^2+ up to 100 mM.
Series [3] is described as follows: fluorescence/pH titration to determine pKa. The series is classed as physicochemical. The note with it: 10 mM MOPS buffer, from pH 4.29, read-out: pKa of the carboxylate group on the ring system. On the procedure: However, it is not intended that the present invention be so limited nor is it necessary to understand the mechanism in order to practice the present invention. Thus, the indicators are present in the deprotonated form and available for complexation at physiological pH.
To determine the pKa of 1-bromo-8-(1,2-dicarboxyethyl)-4-oxo-4H-quinolizine-3-carboxylic acid (21a), 250 μl of the stock solution of 1-bromo-8-(1,2-dicarboxyethyl)-4-oxo-4H-quinolizine-3-carboxylic acid was added to 25 ml of 10 mM MOPS, pH 4.29. The fluorescence emission spectrum was recorded. A 0.1 M NaOH solution containing an equal concentration of 1-bromo-8-(1,2-dicarboxyethyl)-4-oxo-4H-quinolizine-3-carboxylic acid (21a), was added dropwise. After each pH increase of 0.2, the emission spectrum was recorded. At pH 6.31, no change of the fluorescence emission was observed.

Regarding “1-[N,N-di(carboxymethyl)]-4-oxo-4H-quinolizine-3-carboxylic acid [Compound 11a]”, in series [1], the “A, absorption maximum of the free indicator” value is on record as 410 nm. For “8-[3-(N,N-di(carboxymethyl)phenoxy]-4-oxo-4H-quinolizine-3-carboxylic acid [Compound 18a]”, the “A, absorption maximum of the free indicator” value in series [1] is 370 nm.

Regarding `O=C(O)c1ccc2ccccn2c1=O` [Compound 1a, 4-oxo-4H-quinolizine-3-carboxylic acid], the “A, absorption maximum of the free indicator” value in series [1] amounted to 385 nm. For the same compound, in series [2] (Ca^2+ levels in the nanomolar to submicromolar range), the “effect of Ca^2+ on the fluorescence emission” value is reported as “do not affect the fluorescence emission”. For the compound `O=C(O)c1ccc2cc(Cl)ccn2c1=O` [Compound 2a, 4-oxo-8-chloro-4H-quinolizine-3-carboxylic acid], the melting point was above 250 °C. The “A, absorption maximum of the free indicator” value in series [1] was found to be 391 nm. Turning to `O=C(O)c1ccc2ccc3ccccc3n2c1=O` [Compound 3a, [6,7]benzo-4-oxo-4H-quinolizine-3-carboxylic acid], in series [1], the “A, absorption maximum of the free indicator” value is reported as 410 nm. On to `O=C(O)c1cc(Br)c2ccccn2c1=O` [Compound 9a, 1-bromo-4-oxo-4H-quinolizine-3-carboxylic acid], for which the melting point is above 250 °C. The “A, absorption maximum of the free indicator” value in series [1] turned out to be 403 nm. In addition, in series [2], the “fluorescent response to increasing Ca^2+ concentrations” value is “no fluorescent response”. With `O=C(O)C(=Cc1cc(C(=O)O)c(=O)n2ccccc12)C(=O)O` [Compound 12a, 1-(2,2-dicarboxyvinyl)-4-oxo-4H-quinolizine-3-carboxylic acid], in series [1], the “A, absorption maximum of the free indicator” value amounted to 400 nm. Same read-out and setting: under `O=C(O)c1cc(CC(C(=O)O)C(=O)O)c2ccccn2c1=O` [Compound 13a, 1-(2,2-dicarboxyethyl)-4-oxo-4H-quinolizine-3-carboxylic acid] stands 395 nm; under `Nc1ccn2c(=O)c(C(=O)O)ccc2c1` [Compound 15a, 8-amino-4-oxo-4H-quinolizine-3-carboxylic acid], 385 nm. Same read-out and setting: for `O=C(O)Cc1ccn2c(=O)c(C(=O)O)ccc2c1` [Compound 19a, 8-(carboxymethyl)-4-oxo-4H-quinolizine-3-carboxylic acid] the value was 380 nm; for `O=C(O)CC(C(=O)O)c1ccn2c(=O)c(C(=O)O)ccc2c1` (stereo not drawn) [Compound 20a, 8-(1,2-dicarboxyethyl)-4-oxo-4H-quinolizine-3-carboxylic acid], 390 nm. `O=C(O)CC(C(=O)O)c1ccn2c(=O)c(C(=O)O)cc(Br)c2c1` (stereo not drawn) [Compound 21a, 1-bromo-8-(1,2-dicarboxyethyl)-4-oxo-4H-quinolizine-3-carboxylic acid] gave a melting point above 250 °C. Further, the “A, absorption maximum of the free indicator” value in series [1] was 407 nm. Besides, in series [3], the pKa worked out at 5.6. Also, the “fluorescent response to increasing Ca^2+ concentrations” value in series [2] is given as “no fluorescent response”. Compound `COc1ccc(-c2ccn3c(=O)c(C(=O)O)ccc3c2)cc1` [Compound 22a, 8-(4-methoxyphenyl)-4-oxo-4H-quinolizine-3-carboxylic acid] yielded a melting point above 250 °C. Besides, the “A, absorption maximum of the free indicator” value in series [1] stood at 406 nm. Regarding `O=C(O)c1ccc2cc(-c3cccc4ccccc34)ccn2c1=O` [Compound 23a, 8-(naphth-1-yl)-4-oxo-4H-quinolizine-3-carboxylic acid], the melting point was 245 to 247 °C. Further, in series [1], the “A, absorption maximum of the free indicator” value amounted to 386 nm.

Regarding `O=C(O)c1ccc2cc(-c3cc4ccccc4o3)ccn2c1=O` [Compound 24a, 8-benzo[b]furyl-4-oxo-4H-quinolizine-3-carboxylic acid], the “A, absorption maximum of the free indicator” value in series [1] was determined as 440 nm.

The record behind these values is patent US6706528B2, “Fluorescent magnesium indicators” (The United States of America as represented by the …, priority 2000, dated 2004).
